Assay results as given in US12421205B2, “GLP-1 receptor agonist” (HYUNDAI PHARM CO., LTD., priority 2019, dated 2025).

How the values were obtained:
hERG = target: T1, hERG (Homo sapiens, UniProt Q12809); assay: hERG inhibition test (Predictor hERG Fluorescence Polarization assay kit); assay type: binding; conditions: probe kit Tracer (fluorescent hERG ligand), hERG % inhibition at 10 uM, relative to E-4031 and solvent control
T1 construct: purchased Invitrogen PV5365
Outline: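 Competitive fluorescence-polarization binding of fluorescent tracer to hERG membrane preparation, 2.5 h at room temperature, mP read at 531/579 nm. % inhibition at 10 uM test compound, scaled between solvent control (0%) and E-4031 (100%).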

human GLP-1 receptor = target: T2, human GLP-1 receptor (Homo sapiens, UniProt P43220); assay: cAMP activity test (cAMP dynamic HTRF kit) in CHO-K1/GLP-1 receptor-expressing cells; assay type: cell-based; conditions: cAMP activity, CHO-K1/GLP-1 receptor-expressing cells; read-out: EC50
T2 construct: host or cells: CHO-K1
T2 sequence (P43220 24-463): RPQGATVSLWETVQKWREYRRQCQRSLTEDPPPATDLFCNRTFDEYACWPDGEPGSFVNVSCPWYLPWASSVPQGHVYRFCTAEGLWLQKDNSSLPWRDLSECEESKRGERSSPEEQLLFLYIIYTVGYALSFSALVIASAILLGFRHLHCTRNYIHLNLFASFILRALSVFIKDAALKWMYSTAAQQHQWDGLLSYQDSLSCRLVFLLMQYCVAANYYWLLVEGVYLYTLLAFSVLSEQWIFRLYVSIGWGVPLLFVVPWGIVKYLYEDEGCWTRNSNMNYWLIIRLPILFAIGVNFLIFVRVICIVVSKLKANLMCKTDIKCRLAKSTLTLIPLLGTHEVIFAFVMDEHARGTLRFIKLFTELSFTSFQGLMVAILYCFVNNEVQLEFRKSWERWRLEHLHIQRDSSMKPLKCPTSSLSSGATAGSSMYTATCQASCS
Outline: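 Cells in HBSS with 0.1% BSA, 0.5 mM IBMX and 5 mM HEPES, then lysed; cAMP-d2 and anti-cAMP cryptate added for 3 h. HTRF read-out, where FRET signal is inversely proportional to intracellular cAMP.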

T1 sequence (Q12809 whole entry): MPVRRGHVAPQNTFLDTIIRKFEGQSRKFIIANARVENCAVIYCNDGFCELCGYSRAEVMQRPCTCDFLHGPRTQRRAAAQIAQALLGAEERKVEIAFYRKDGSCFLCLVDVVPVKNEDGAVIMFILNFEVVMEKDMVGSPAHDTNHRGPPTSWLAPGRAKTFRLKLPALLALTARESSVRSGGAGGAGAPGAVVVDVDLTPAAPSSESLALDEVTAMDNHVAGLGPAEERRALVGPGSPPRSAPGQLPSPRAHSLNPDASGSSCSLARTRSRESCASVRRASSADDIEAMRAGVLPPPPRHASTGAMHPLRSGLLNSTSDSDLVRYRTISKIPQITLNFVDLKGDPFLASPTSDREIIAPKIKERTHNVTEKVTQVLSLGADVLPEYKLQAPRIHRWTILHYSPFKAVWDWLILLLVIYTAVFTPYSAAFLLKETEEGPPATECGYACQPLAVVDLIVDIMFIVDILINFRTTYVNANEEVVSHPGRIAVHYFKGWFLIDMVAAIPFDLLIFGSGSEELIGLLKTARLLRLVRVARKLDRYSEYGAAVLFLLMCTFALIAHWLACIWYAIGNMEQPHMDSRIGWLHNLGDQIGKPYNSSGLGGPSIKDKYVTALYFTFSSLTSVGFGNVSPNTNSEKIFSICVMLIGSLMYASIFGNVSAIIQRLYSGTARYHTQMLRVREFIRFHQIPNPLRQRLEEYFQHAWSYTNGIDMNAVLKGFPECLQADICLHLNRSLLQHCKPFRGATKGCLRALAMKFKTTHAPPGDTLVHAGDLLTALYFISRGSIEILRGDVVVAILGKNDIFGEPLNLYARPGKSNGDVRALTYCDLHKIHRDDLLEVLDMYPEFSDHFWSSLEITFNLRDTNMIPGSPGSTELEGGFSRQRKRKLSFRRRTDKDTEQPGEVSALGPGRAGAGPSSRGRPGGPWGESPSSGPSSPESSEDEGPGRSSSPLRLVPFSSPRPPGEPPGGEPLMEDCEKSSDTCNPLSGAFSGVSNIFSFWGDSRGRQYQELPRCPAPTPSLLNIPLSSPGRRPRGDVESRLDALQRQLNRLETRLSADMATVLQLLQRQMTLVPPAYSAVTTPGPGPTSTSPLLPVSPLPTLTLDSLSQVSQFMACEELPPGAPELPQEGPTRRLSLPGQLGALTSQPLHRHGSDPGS

EC50 (human GLP-1 receptor) [nM] | Structure (SMILES) | inhibition at 2.5 h, 10 µM (hERG) [%]
4.3 | N#Cc1ccc(COc2cccc(-c3ccc(Cc4nc5ccc(C(=O)O)cc5n4C[C@@H]4CCO4)cc3F)n2)cc1 [Example 118, (S)-2-(4-(6-((4-cyanobenzyl)oxy)pyridin-2-yl)-3-fluorobenzyl)-1-(oxetan-2-ylmethyl)-1H-benzo[d]imidazole-6-carboxylic acid] | 20.7
< 3.2 | N#Cc1ccc(COc2cccc(-c3ccc(Cc4nc5ccc(C(=O)O)cc5n4C[C@@H]4CCO4)c(F)c3F)n2)c(F)c1 [Example 113, (S)-2-(4-(6-((4-cyano-2-fluorobenzyl)oxy)pyridin-2-yl)-2,3-difluorobenzyl)-1-(oxetan-2-ylmethyl)-1H-benzo[d]imidazole-6-carboxylic acid] | -4.94
35 | O=C(O)c1ccc2nc(Cc3ccc(-c4cccc(OCc5ccc(Cl)cc5F)n4)cc3F)n(Cc3ccco3)c2c1 [Example 13, 2-(4-(6-(4-chloro-2-fluorobenzyloxy)pyridin-2-yl)-2-fluorobenzyl)-1-(furan-2-ylmethyl)-1H-benzo[d]imidazole-6-carboxylic acid] | -7.76
18 | N#Cc1ccc(COc2cccc(-c3ccc(Cc4nc5ccc(C(=O)O)cc5n4CC4CCCO4)c(F)c3)n2)cc1 (centres unmarked) [Example 87, 2-(4-(6-(4-cyanobenzyloxy)pyridin-2-yl)-2-fluorobenzyl)-1-((tetrahydrofuran-2-yl)methyl)-1H-benzo[d]imidazole-6-carboxylic acid] | 32.9
190 | Cc1cc(-c2cccc(OCc3ccc(Cl)cc3F)n2)ccc1Cc1nc2ccc(C(=O)O)cc2n1C[C@@H]1CCO1 [Example 134, (S)-2-(4-(6-((4-chloro-2-fluorobenzyl)oxy)pyridin-2-yl)-2-methylbenzyl)-1-(oxetan-2-ylmethyl)-1H-benzo[d]imidazole-6-carboxylic acid] | 28.3
82 | O=C(O)c1ccc2nc(Cc3ccc(-c4cccc(OCc5ccc(Cl)cc5F)c4)cc3F)n(CC3CCCO3)c2c1 (centres unmarked) [Example 16, 2-((3′-(4-chloro-2-fluorobenzyloxy)-3-fluorobiphenyl-4-yl)methyl)-1-((tetrahydrofuran-2-yl)methyl)-1H-benzo[d]imidazole-6-carboxylic acid] | -0.94
260 | COCCn1c(Cc2ccc(-c3cccc(OCc4ccc(C#N)cc4F)c3)c(F)c2)nc2ccc(C(=O)O)cc21 [Example 40, 2-((3′-(4-cyano-2-fluorobenzyloxy)-2-fluorobiphenyl-4-yl)methyl)-1-(2-methoxyethyl)-1H-benzo[d]imidazole-6-carboxylic acid] | 6.91
16 | O=C(O)c1ccc2nc(Cn3ccc(-c4cccc(OCc5ccc(Cl)cc5F)n4)cc3=O)n(C[C@@H]3CCO3)c2c1 [Example 110, (S)-2-((6-((4-chloro-2-fluorobenzyl)oxy)-2′-oxo-[2,4′-bipyridin]-1′(2′H)-yl)methyl)-1-(oxetan-2-ylmethyl)-1H-benzo[d]imidazole-6-carboxylic acid] | 7.61
15 | O=C(O)c1ccc2nc(Cc3ccc(-c4cccc(OCc5ccc(Cl)cc5F)n4)c(F)c3)n(Cc3cccs3)c2c1 [Example 50, 2-(4-(6-(4-chloro-2-fluorobenzyloxy)pyridin-2-yl)-3-fluorobenzyl)-1-(thiophen-2-ylmethyl)-1H-benzo[d]imidazole-6-carboxylic acid] | 4.72
< 3.2 | CCn1cncc1Cn1c(Cc2ccc(-c3cccc(OCc4ccc(Cl)cc4F)n3)cc2F)nc2ccc(C(=O)O)cc21 [Example 72, 2-(4-(6-(4-chloro-2-fluorobenzyloxy)pyridin-2-yl)-2-fluorobenzyl)-1-((1-ethyl-1H-imidazole-5-yl)methyl)-1H-benzo[d]imidazole-6-carboxylic acid] | -5.75
11 | N#Cc1ccc(COc2cccc(-c3ccc(Cc4nc5ccc(C(=O)O)cc5n4C[C@@H]4CCCO4)cc3F)n2)c(F)c1 [Example 67, (S)-2-(4-(6-(4-cyano-2-fluorobenzyloxy)pyridin-2-yl)-3-fluorobenzyl)-1-((tetrahydrofuran-2-yl)methyl)-1H-benzo[d]imidazole-6-carboxylic acid] | 0.85
100 | O=C(O)c1ccc2nc(Cc3ccc(-c4ccc(F)c(OCc5ccc(Cl)cc5F)c4)cc3F)n(CC3CCCO3)c2c1 (centres unmarked) [Example 95, 2-((3′-(4-chloro-2-fluorobenzyloxy)-3,4′-difluorobiphenyl-4-yl)methyl)-1-((tetrahydrofuran-2-yl)methyl)-1H-benzo[d]imidazole-6-carboxylic acid] | -38.2
14 | O=C(O)c1ccc2nc(Cc3ccc(-c4cccc(OCc5ccc(Cl)cc5)n4)c(F)c3)n(C[C@@H]3CCO3)c2c1 [Example 123, (S)-2-(4-(6-((4-chlorobenzyl)oxy)pyridin-2-yl)-3-fluorobenzyl)-1-(oxetan-2-ylmethyl)-1H-benzo[d]imidazole-6-carboxylic acid] | -0.45
63 | COCCn1c(Cc2ccc(-c3cccc(OCc4ccc(Cl)cc4F)n3)cc2)nc2ccc(C(=O)O)cc21 [Example 2, 2-(4-(6-(4-chloro-2-fluorobenzyloxy)pyridin-2-yl)benzyl)-1-(2-methoxyethyl)-1H-benzo[d]imidazole-6-carboxylic acid] | -11.9
4.6 | N#Cc1ccc(COc2cccc(-c3ccc(Cc4nc5ccc(C(=O)O)cc5n4C[C@@H]4CCCO4)c(F)c3)n2)c(F)c1 [Example 66, (S)-2-(4-(6-(4-cyano-2-fluorobenzyloxy)pyridin-2-yl)-2-fluorobenzyl)-1-((tetrahydrofuran-2-yl)methyl)-1H-benzo[d]imidazole-6-carboxylic acid] | -7.97
120 | N#Cc1ccc(COc2cccc(-c3ccc(Cc4nc5ccc(C(=O)O)cc5n4CC4CCCO4)cc3)c2)c(F)c1 (centres unmarked) [Example 8, 2-((3′-(4-cyano-2-fluorobenzyloxy)biphenyl-4-yl)methyl)-1-((tetrahydrofuran-2-yl)methyl)-1H-benzo[d]imidazole-6-carboxylic acid] | 4.01
240 | COCCn1c(Cc2ccc(-c3cccc(OCc4ccc(C#N)cc4F)n3)cc2)nc2ccc(C(=O)O)cc21 [Example 20, 2-(4-(6-(4-cyano-2-fluorobenzyloxy)pyridin-2-yl)benzyl)-1-(2-methoxyethyl)-1H-benzo[d]imidazole-6-carboxylic acid] | 6.19
9.5 | COc1ccc(COc2cccc(-c3ccc(Cc4nc5ccc(C(=O)O)cc5n4C[C@@H]4CCO4)cc3F)n2)cc1 [Example 122, (S)-2-(3-fluoro-4-(6-((4-methoxybenzyl)oxy)pyridin-2-yl)benzyl)-1-(oxetan-2-ylmethyl)-1H-benzo[d]imidazole-6-carboxylic acid] | -5.75
130 | O=C(O)c1ccc2nc(Cc3ccc(-c4cccc(OCc5ccc(Cl)cc5F)c4)cc3)n(CC3CCCO3)c2c1 (centres unmarked) [Example 24, 2-((3′-(4-chloro-2-fluorobenzyloxy)biphenyl-4-yl)methyl)-1-((tetrahydrofuran-2-yl)methyl)-1H-benzo[d]imidazole-6-carboxylic acid] | -7.68
25 | COCCn1c(Cc2ccc(-c3cccc(OCc4ccc(Cl)cc4F)n3)c(F)c2)nc2ccc(C(=O)O)cc21 [Example 6, 2-(4-(6-(4-chloro-2-fluorobenzyloxy)pyridin-2-yl)-3-fluorobenzyl)-1-(2-methoxyethyl)-1H-benzo[d]imidazole-6-carboxylic acid] | 22.8
230 | N#Cc1ccc(COc2cccc(-c3ccc(Cc4nc5ccc(C(=O)O)cc5n4CCF)c(F)c3)n2)c(F)c1 [Example 44, 2-(4-(6-(4-cyano-2-fluorobenzyloxy)pyridin-2-yl)-2-fluorobenzyl)-1-(2-fluoroethyl)-1H-benzo[d]imidazole-6-carboxylic acid] | 1.77
10 | O=C(O)c1ccc2nc(Cc3ccc(-c4cccc(OCc5ccc(Cl)cc5F)n4)cc3)n(Cc3cccnc3)c2c1 [Example 1, 2-(4-(6-(4-chloro-2-fluorobenzyloxy)pyridin-2-yl)benzyl)-1-(pyridin-3-ylmethyl)-1H-benzo[d]imidazole-6-carboxylic acid] | 1.26
< 3.2 | O=C(O)c1ccc2nc(Cc3cc(F)c(-c4cccc(OCc5ccc(Cl)cc5F)n4)cc3F)n(C[C@@H]3CCO3)c2c1 [Example 86, (S)-2-(4-(6-(4-chloro-2-fluorobenzyloxy)pyridin-2-yl)-2,5-difluorobenzyl)-1-(oxetan-2-ylmethyl)-1H-benzo[d]imidazole-6-carboxylic acid] | 8.93
< 3.2 | N#Cc1ccc(COc2cccc(-c3cc(F)c(Cc4nc5ccc(C(=O)O)cc5n4C[C@@H]4CCO4)c(F)c3)n2)c(F)c1 [Example 103, (S)-2-(4-(6-(4-cyano-2-fluorobenzyloxy)pyridin-2-yl)-2,6-difluorobenzyl)-1-(oxetan-2-ylmethyl)-1H-benzo[d]imidazole-6-carboxylic acid] | 5.66
29 | Cc1cc(-c2cccc(OCc3ccc(C#N)cc3F)n2)ccc1Cc1nc2ccc(C(=O)O)cc2n1CC1CCCO1 (centres unmarked) [Example 68, 2-(4-(6-(4-cyano-2-fluorobenzyloxy)pyridin-2-yl)-2-methylbenzyl)-1-((tetrahydrofuran-2-yl)methyl)-1H-benzo[d]imidazole-6-carboxylic acid] | -11.4
